Measurements as given in PMC5601738, “Facile total synthesis of lysicamine and the anticancer activities of the Ru^II, Rh^III, Mn^II and Zn^II complexes of lysicamine” (Oncotarget, 2017).
Where “and” joins values, the source holds several entries; their conditions need not be identical. Equal values may be shown once. Read-outs that look alike come from different tables or passages of the source.

Tests used:
[1] = tested on: HL-7702 normal liver cell; assay: MTT assay, HL-7702 normal liver cell; format: cell-based; conditions: 48 h; for IC50: MTT, mean ± SD from five independent experiments
BEL-7404 = assay: MTT assay, BEL-7404 cells; format: cell-based, human; conditions: 48 h; for IC50: MTT, mean ± SD from five independent experiments
T-24 = assay: MTT assay, T-24 cells; format: cell-based, human; conditions: 48 h; for IC50: MTT, mean ± SD from five independent experiments
HepG2 xenograft = HepG2 xenograft model
HepG2 = assay: MTT assay, HepG2 cells; conditions: for IC50: read-out: IC50 HepG2
NCI-H460 = assay: MTT assay, NCI-H460 cells; format: cell-based, human; conditions: 48 h; for IC50: MTT, mean ± SD from five independent experiments
HepG2 cells = assay: Cell cycle analysis by flow cytometry; format: cell-based, human; conditions: HepG2, 24 h
ct-DNA = assay: CD absorption spectrometry assay with ct-DNA; format: binding; conditions: ct-DNA 1×10^−4 M, [DNA]/[compound] 10:0.5 to 10:2.0
pBR322 plasmid DNA = assay: Agarose gel electrophoresis assay with pBR322 plasmid DNA; format: biochemical; conditions: pBR322 0.5 μg/μL, TBE buffer pH=8.5, 10 to 100 μM
Description: The DNA cleavage activity of 2, 3 and LY were tested by agarose gel electrophoresis assay using pBR322 plasmid DNA (0.5 μg/μL) in TBE buffer (pH=8.5). […] In contrast, under the same experimental conditions, when the concentration of 2 increased from 10 μM to 50 μM, the mobility of supercoiled DNA (form I) was reduced, but the relaxed form (form II) was not observed. When the concentration of 2 increased further to 70 μM, the form II DNA appeared. Almost all supercoiled DNA (form I) changed to relaxed DNA (form II) when the concentration of 2 reached 90 and 100 μM.
RT-qPCR was performed. The threshold cycle (Ct) values approval no. SCXK 2014-0002 and SYXK 2014-0003), […]
were housed at a sterile environment with conditions of […]
than 3 days before used. Complexes and LYwere all […]
is limited in 1% in final working solutions. KM mice. The large concentration of 2 in 10% (v/v) […]
ct-DNA CD spectrum as control.
The HepG2 xenograft mice were induced by
37 °C in the dark for 4 h.
The percent weight loss or gain was calculated […]
imaging system under a UV-Vis transilluminator.. Percent tumour growth inhibition after initiation of treatment with 2 and cisplatin were calculated by TGI= […]
initial for control group).
Animals were supplied by Guangxi Medical
University Laboratory Animal Centre (Guangxi, China, […]

[2] = metal salts 1× 10-4 mol/L, 48 h

Row | Compound | inhibitive ratio HL-7702 ([1]; 20 μmol/L, normal liver cell) | inhibitive ratio BEL-7404 (BEL-7404; 20 μmol/L) [%] | inhibitive ratio T-24 (T-24; 20 μmol/L) [%] | inhibitive ratio Hep-G2 (HepG2; 20 μmol/L, 48 h) [%] | inhibitive ratio NCI-H460 (NCI-H460; 20 μmol/L) [%] | inhibitive ratio HL-7702 ([1]; metal salts 1× 10-4 mol/L) [%] | inhibitive ratio BEL-7404 (BEL-7404; metal salts 1× 10-4 mol/L) [%] | inhibitive ratio T-24 (T-24; metal salts 1× 10-4 mol/L) [%] | inhibitive ratio Hep-G2 (HepG2; [2]) [%] | inhibitive ratio NCI-H460 (NCI-H460; metal salts 1× 10-4 mol/L) [%] | also measured
1 | N.N.[Cl][Pt][Cl] [Cisplatin, cisplatin, reference compound] | 68.95±1.42% and 68.9% | 55.15±1.18 | 47.58±2.05 | 60.63±0.99 | 53.88±1.29 |  |  |  |  |  | IC50 ([1]; normal liver cell): 15.7 ± 1.27 µM; IC50 (BEL-7404): 12.4 ± 0.38 µM; IC50 (T-24): 28.1 ± 1.88 µM; BW% (body weight change) (HepG2 xenograft; 2.0 mg/kg per 2 days): -25.8%; loss in body weight (HepG2 xenograft; 2.0 mg/kg per 2 days): 25.8%; TGI (HepG2 xenograft; 2.0 mg/kg per 2 days i.p.): 83.16%; IC50 (HepG2; MTT, 48 h, mean ± SD from five independent experiments): 18.5 ± 0.78 µM; IC50 (NCI-H460): 18.3 ± 1.02 µM
2 | COc1cc2ccnc3c2c(c1OC)-c1ccccc1C3=O [LY, lysicamine] | 45.49±0.78% and 45.5% | 32.27±1.73 | 42.40±2.14 | 53.13±1.19 | 52.85±0.32 |  |  |  |  |  | IC50 ([1]; Homo sapiens, L02, normal liver cell): 29.3 ± 0.72 µM; IC50 (BEL-7404; Homo sapiens, BEL-7404): 47.5 ± 1.65 µM; effect on cell cycle progression (HepG2 cells): only blocked the cell cycle in the G1 phase; IC50 (T-24; Homo sapiens, T-24): 34.5 ± 1.96 µM; change of CD spectrum of ct-DNA / binding (ct-DNA): the binding was weak; IC50 (HepG2; Homo sapiens, HepG2, 48 h): 23.9 ± 0.41 µM; IC50 (NCI-H460; Homo sapiens, NCI-H460): 19.14 ± 0.18 µM; DNA cleavage activity on supercoiled pBR322 DNA (pBR322 plasmid DNA): did not change the supercoiled DNA and its migration rate
3 | O.O.O.O.O.O.[Mn+2].[O-][Cl+3]([O-])([O-])[O-].[O-][Cl+3]([O-])([O-])[O-] [Mn(ClO4)2·6H2O, reference compound] |  |  |  |  |  | 23.06±1.64 | 25.84±1.36 | 24.08±1.86 | 18.52±0.67 | 30.12±0.46 | 
4 | O.O.O.[Cl][Rh]([Cl])[Cl] [RhCl3·3H2O, reference compound] |  |  |  |  |  | 30.12±1.57 | 35.29±0.97 | 27.09±1.11 | 24.02±1.02 | 25.41±1.25 | 
